SMILES strings stand for the structures. Counter-ions that a name gives are not always drawn.

Consider four molecules from PMC6099493, “Discovery of Matrinic Thiadiazole Derivatives as a Novel Family of Anti-Liver Fibrosis Agents via Repression of the TGFβ/Smad Pathway” (Molecules : A Journal of Synthetic Chemistry and Natural …, 2018).

The subject of one series is COL1A1 promotor. The series can be described thus: COL1A1 promotor single luciferase reporter gene model in LX-2 (LX2-COL) cells. Type of series: cell-based, human. The following applies: Homo sapiens, LX-2 cells treated simultaneously with TGFβ1 and compound, read-out: Inhibition Percentage (inhibition rate of COL1A1 promotor's activity in LX2 cells).
In another series the test system is α-SMA mRNA. The series can be described thus: α-SMA mRNA level by real-time PCR in TGFβ1-stimulated LX-2 cells. It is filed as cell-based, human. The conditions noted are these: 80 μM, TGFβ1 2 ng/mL. As for the experimental part:
(§1) α-SMA is a more commonly recognized indicator for liver fibrosis, and it could be induced by a stimulation of TGFβ1 [22], therefore, the amounts of α-SMA were also evaluated.
(§2) LX-2 cells were seeded in 6-well plate, cultured in DMEM, containing 10% fetal bovine serum (FBS) in a 5% CO2 atmosphere at 37 °C. And serum-free culture was required until the cells at 90–95% confluence. After 24 h, cells were treated with TGFβ1 (2 ng/mL) and matrinic derivatives (80 μM) for 24 h. Total RNA from the LX-2 cells was extracted using Trizol reagent, purified by NucleoSpin RNA Clean-up. Reverse transcription was performed with a Transcriptor first strand cDNA synthesis kit. The cDNA was then analysis by ABI 7500 Fast Real-Time PCR System (ThermoFisher Scientific, Singapore) using TaqMan probes of TGFβ1, COL1A1, α-SMA, and GAPDH (sequence reserved by ABI, Foster City, CA ,USA) and FastStart Universal Probe master mix (Roche, Indianapolis, IN, USA).

In the next series the test system is COL1A1 mRNA. The series can be described thus: COL1A1 mRNA level by real-time PCR in TGFβ1-stimulated LX-2 cells. Type of series: cell-based, human. The conditions noted are these: 80 μM, TGFβ1 2 ng/mL. As for the experimental part:
(§3) Next, compounds 6i, 6l and 6n were chosen as the key compounds to verify their inhibitory effects against COL1A1. LX-2 cells were stimulated with TGFβ1 (2 ng/mL), and then treated with compounds 6i, 6l and 6n (80 μM) respectively, taking 1 as the control. Their anti-COL1A1 effects were evaluated on RNA level by real-time PCR amplification. […] Then their anti-COL1A1 effects were investigated on the protein level by western blot assays.
as §2
(Quantitative PCR measures a nucleic acid by following its amplification.)

The test system of another series is α-SMA protein. The experiment in a line: α-SMA protein level by western blot in LX-2 cells. It is filed as cell-based. The conditions noted are these: Homo sapiens, TGFβ1 2 ng/mL, read-out: α-SMA protein level inhibition rate. As for the experimental part: as §1
(§4) LX-2 cells were cultured as described above. Briefly, cells were washed with phosphate-buffered saline (PBS) and were lysed in radioimmunoprecipitation assay (RIPA) lysis for 30 min in 4 °C; the supernatant was collected after centrifugation at 12,000× g, 4 °C for 15 min. Equal amounts of protein were quantified with Bradford assay, separated by SDS-PAGE and transferred to polyvinylidene difluoride membrane. The membranes were blocked for one hour at room temperature in PBST containing 5% milk and probed with specific first antibodies overnight at room temperature. Membrane was washed 3 times by PBST, followed by horseradish peroxidase-conjugated secondary antibodies and GAPDH. The proteins were visualized using chemiluminescence reagents.

In another series the test system is COL1A1 protein. The experiment in a line: COL1A1 protein level by western blot in LX-2 cells. The following applies: Homo sapiens, TGFβ1 2 ng/mL, read-out: COL1A1 protein level inhibition rate. It is filed as cell-based. As for the experimental part:
as §3, §4
In general terms: Immunoblotting shows a protein as a band on a membrane.

Series [1] is described as follows: MTT cytotoxicity / cell survival assay. It is filed as cell-based. The conditions noted are these: human, HepG2 cells, read-out: CC50 (cytotoxic concentration required to inhibit HepG2 cell growth by 50%). As for the experimental part:
(§5) A single luciferase reporter gene detection model was applied to screen the inhibitory effects towards COL1A1 promotor of all target compounds in human hepatic stellate LX-2 cells at the concentration of 40 μM, taking EGCG and compound 1 as the positive controls. The LX2-COL monoclone cell line was treated simultaneously with TGFβ1 and a target compound [13]. The cytotoxicity was determined using MTT assay in HepG2 cells.
(§6) The cell survival was evaluated by MTT assay. HepG2 cells were seeded at density of 6 × 10^3 cells/well in 96-well plate. Cells were treated with various concentrations of matrinic derivate until the cells at 50% confluence. After 24 h of incubation, 20 µL of the MTT (5 mg/mL) solution was added into each plate and incubated for 4 h at 37 °C, 5% CO2. Subsequently, the culture supernatant was replaced with 150 µL DMSO to dissolve the formazan crystal. The absorbance at 570 nm was measured using a microplate reader (ELx800, BioTek Instruments, Winooski, VT, USA).

The subject of the next series is HepG2 cells. The series can be described thus: MTT cytotoxicity / cell survival assay. It is filed as cell-based. The conditions noted are these: read-out: CC50 (cytotoxic concentration required to inhibit HepG2 cell growth by 50%). As for the experimental part: as §5, §6
Series [2] has as its system Smad2 / phosphorylated Smad2 (TGFβ/Smad pathway). The series can be described thus: Smad2 and p-Smad2 levels by western blot in LX-2 cells. Type of series: cell-based, human. As for the experimental part: Considering the key role of TGFβ/Smad pathway in activating COL1A1, the effects of the three compounds on Smad and phosphorylated Smad were then evaluated.
as §4

Another series has as its system Kunming mice. The conditions noted are these: female, mouse, in vivo, po, 7 days. As for the experimental part:
To evaluate the safety profile of 6n, an acute toxicity test was performed in Kunming mice. Compound 6n was given orally in a single-dosing experiment at 125, 250 or 500 mg·kg^−1, respectively. The mice were closely monitored for 7 days. To our delight, it gave the median lethal dose (LD50) value over 500 mg·kg^−1, indicating a good safety profile in vivo.
Female Kunming mice with weight of 20.0 (±1.0 g) were obtained from the Institute of Laboratory Animal Science (Beijing, China). Animals were cared according to the institutional guidelines of the Institute of Materia Medica, CAMS&PUMC (00000364). The mice were fed with regular rodent chow and housed in an air conditioned room. The mice were randomly divided into different groups with 6 mice each. Each compound was given orally in a single-dosing experiment at 0, 250, 500, 750 or 1000 mg·kg^−1 (ddH2O as control), respectively. The mice were closely monitored for 7 days. Body weight as well as survival was monitored.

For `Cc1ccc(S(=O)(=O)N2CC3CCCN4CCCC(C34)C2CCCC(=O)O)cc1` (centres unmarked) [Compound 1, 12-N-p-Methylbenzenesulfonyl matrinic acid], the melting point (commonly the temperature, or range, at which the solid turns liquid) was 239 to 240 °C. For the same molecule, the inhibition (in general, the relative decrease from the control value, in per cent) at 40 µM in the series on COL1A1 promotor worked out at 18.5%. In addition, the “α-SMA mRNA level inhibitory rate” value in the series with α-SMA mRNA was found to be 69.7%. Moreover, the “COL1A1 mRNA level inhibitory rate” value with COL1A1 mRNA stood at 41.9%. In addition, the inhibition at 80 µM with α-SMA protein is 28.9%. In addition, the inhibition at 80 µM with COL1A1 protein is 16.2%. For the same molecule, in series [1], the CC50 at 24 h is > 320 µM.
As for `Cc1ccc(S(=O)(=O)N2CC3CCCN4CCCC(C34)C2CCCc2nnc(Nc3ccccc3)s2)cc1` (centres unmarked) [Compound 6e, 12-N-p-Methylbenzenesulfonyl-3′-(N-phenyl-5-amino-1,3,4-thiadiazol-2-yl)-matrinic propane], in the series with COL1A1 promotor, the inhibition at 40 µM came to 69%. Further, the CC50 at 24 h in series [1] was > 82.6 µM. Further, the CC50 in the series with HepG2 cells came to 82.5 µM.
In turn, `Nc1nnc(CCCC2C3CCCN4CCCC(CN2Cc2ccccc2)C34)s1` (centres unmarked) [Compound 6i, 12-N-Benzyl-3′-(5-amino-1,3,4-thiadiazol-2-yl)-matrinic propane] registered a melting point of 170 to 171 °C. Besides, the inhibition at 40 µM with COL1A1 promotor amounted to 47.8%. Also, the “α-SMA mRNA level inhibitory rate” value with α-SMA mRNA is 75.1%. In the series on COL1A1 mRNA, the “COL1A1 mRNA level inhibitory rate” value is 46.1%. For the same molecule, in the series on α-SMA protein, the inhibition at 80 µM was 64.9%. In the series on COL1A1 protein, the inhibition at 80 µM amounted to 65%. Also, in series [2], the “Effect on Smad level” value is listed as “did not affect the Smad level” and the “Effect on phosphorylation level of Smad2 (in words)” value is “repressed the phosphorylation level of Smad2 significantly”. Besides, the CC50 at 24 h in series [1] is > 320 µM.
As to `Cc1ccc(CN2CC3CCCN4CCCC(C2CCCc2nnc(N(C)C)s2)C34)cc1` (centres unmarked) [Compound 6n, 12-N-p-Methylbenzyl-3′-(N,N-dimethyl-5-amino-1,3,4-thiadiazol-2-yl)-matrinic propane hydrochloride], in the series with COL1A1 promotor, the inhibition at 40 µM is 39.7%. The “α-SMA mRNA level inhibitory rate” value in the series on α-SMA mRNA was 87.6%. The “COL1A1 mRNA level inhibitory rate” value in the series with COL1A1 mRNA was found to be 78.4%. The “median lethal dose (LD50)” value in the series on Kunming mice is “over 500 mg·kg^−1”. The inhibition at 80 µM with α-SMA protein amounted to 104%. The inhibition at 80 µM in the series on COL1A1 protein turned out to be 47.6%. In addition, in series [2], the “Effect on Smad level” value is on record as “did not affect the Smad level”, the “Effect on phosphorylation level of Smad2 (in words)” value was “repressed the phosphorylation level of Smad2 significantly” and the “Inhibition rate of Smad2 phosphorylation level” value is on record as 49.8%. Further, the CC50 at 24 h in [1] is > 320 µM.
